Drawing on patent publication US5359063A, “Heterocyclene derivatives” (Imperial Chemical Industries PLC, priority 1990, dated 1994), this text covers ED50 and IC50 for two molecules.

Structures are written as SMILES.

Assay [1] has as its system 5-LO. In words: Test g) LTB4 liberation induced by zymosan within an air pouch in male rats. It counts as in vivo. The settings on record: 3 h; test g), rat air pouch, oral. Here is the method:
g) An in vivo system involving measuring the effects of a test compound administered orally against the liberation of LTB4 induced by zymosan within an air pouch generated within the subcutaneous tissue of the back of male rats. The rats are anaesthetised and air pouches are formed by the injection of sterile air (20 ml). A further injection of air (10 ml) is similarIv given after 3 days. At 6 days after the initial air injection the test compound is administered (usually orally as the suspension produced when a solution of the test compound in dimethylsulphoxide is added to hydroxypropylmethylcellulose), followed by the intrapouch injection of zymosan (1 ml of a 1% suspension in physiological saline). After 3 hours the rats are killed, the air pouches are lavaged with physiological saline, and the specific radioimmunoassay described above is used to assay LTB4 in the washings. This test provides an indication of inhibitory effects against 5-LO in an inflammatory milieu.

The test system of assay [2] is 5-LO. As to the kind of experiment: Test b) LTB4 in heparinised human blood challenged with calcium ionophore A23187 (radioimmunoassay). It counts as cell-based. The procedure:
b) An in vitro assay system involving incubating a test compound with heparinised human blood, prior to challenge with the calcium ionophore A23187 and then indirectly measuring the inhibitory effects on 5-LO by assaying the amount of LTB4 using specific radioimmunoassays described by Carey and Forder (F. Carey and R. A. Forder, Prostaglandins, Leukotrienes Med., 1986, 22, 57; Prostaglandins, 1984, 28, 666; Brit. J. Pharmacol. 1985, 84, 34P) which involve the use of a protein-LTB4 conjugate produced using the procedure of Young et alia (Prostaglandins, 1983, 26(4), 605-613). The effects of a test compound on the enzyme cyclooxygenase (which is involved in the alternative metabolic pathway for arachidonic acid and gives rise to prostaglandins, thromboxanes and related metabolites) may be measured at the same time using the specific radioimmunoassay for thromboxane B2 (TxB2) described by Carey and Forder (see above). This test provides an indication of the effects of a test compound against 5-LO and also cyclooxygenase in the presence of blood cells and proteins. It permits the selectivity of the inhibitory effect on 5-LO or cyclooxygenase to be assessed.

For the molecule `COC1(c2ccc(Sc3ccc(C(C)(C)C)cc3)s2)CCOCC1` [4-[5-(4-tert-butylphenylthio)thien-2-yl]-4-methoxytetrahydropyran], the median effective dose (ED50) (commonly the dose that gives a 50% effect, or the effect in half of the subjects) in the assay with 5-LO [1] amounted to 1.5 mg/kg. Moreover, the IC50 (as a rule, the concentration that gives 50% inhibition) with 5-LO [2] stood at 150 nM.

For the molecule `COC1(c2ccc(Sc3ccc4c(c3)CCC(=O)N4C)s2)CCOCC1` [4-methoxy-4-[5-(1-methyl-2-oxo-1,2,3,4-tetrahydroquinolin-6-ylthio)thien-2-yl]tetrahydropyran], in the assay on 5-LO [1], the ED50 is < 1.5 mg/kg. In addition, in the assay on 5-LO [2], the IC50 turned out to be 40 nM.
